Laboratory results from patent publication US20170128428A1 (priority 2014, published 2017).

Experiments:
[1] = test system: chemically induced neuropathic pain; details: Kautio et al. 2008; Mitchell et al. 2006; cited from earlier work
[2] = test system: oxaliplatin-induced neuropathy; details: chronic oxaliplatin, study D0 to D28; group O; FIG. 4
Protocol: (§1) The animals in the control group received an injection of 5% glucose by the same route, at the same frequency and the same volume.
(§2) These tablets were reduced to a fine powder, and placed in suspension in water containing 0.5% carboxymethylcellulose (Sigma Aldrich, France) in order to obtain a solution at 4 mg/ml. […] The animals in the control group simply received an administration of 0.5% carboxymethylcellulose by the same route, at the same volume and the same frequency.
The rats' tails are submerged in a cold water bath (10° C.). The immersion is maintained until the animal withdraws its tail. The latency of the withdrawal is clocked. Each measurement is done in triplicate.
(§3) The trials were conducted over a period of 3 hours, on all 4 groups of rats. The time t0 corresponds to the moment of the injection.

[3] = test system: oxaliplatin-induced neuropathy; details: chronic oxaliplatin, day 31; group O; FIG. 5
Protocol: as §1, §2
This test takes place in an arena equipped with a camera in which two animals are placed in one another's presence for 10 minutes. The purpose of this test is to measure the interaction time between the animals. The two studied animals are always part of the same experimental condition group to prevent the behavior of one rat from influencing the other. The rats interact with one another by sniffing, grooming, chasing, etc. An increase in interactions indicates a non-anxious state of the rat, while a decrease and tendency toward prostration indicates an anxious state of the animal. At the beginning of the experiment, the animals are placed in opposite corners of the arena and the handler leaves the room. The arena is cleaned between two experiments to prevent the odors from the previous rats from disrupting the results.
A dose of 5 mg/kg was administered to the animals in groups D and O-D 30 minutes before the test.

[4] = test system: oxaliplatin-induced neuropathy; details: chronic oxaliplatin, study D0 to D28; group O; FIG. 3
Protocol: as §1, §2
The Von Frey electronic apparatus (Chaplan et al., 1994) includes a portable sleeve made up of an elastic tip connected to a force sensor. The rats are placed in Plexiglas boxes, arranged on a raised grate. After a habituation period of the rats, the tip is applied perpendicularly to the center of the 5 plantar pads of each of rear paw. […] The intensity of the stimulus, the maximum applied pressure (expressed in grams) is recorded by the device upon withdrawal of the paw.
as §3

[5] = Park et al. 2011; treatment using oxaliplatin and/or cisplatin; cited from earlier work

Compound: CN(C)CCC=C1c2ccccc2CCc2ccccc21 [amitriptyline]
- relief in patients treated with oxaliplatin [1]: have not provided any relief

Compound: NCC1(CC(=O)O)CCCCC1 [gabapentin]
- relief in patients treated with oxaliplatin [1]: have not provided any relief

Compound: O=C1[O][Pt-2]2([NH2+]C3CCCC[C@H]3[NH2+]2)[O]C1=O (stereo in doubt) [oxaliplatin, cis-[(1R, 2R)-1,2-cyclohexanediamine-N, N′] [oxaloto (2)-O, O′] platinum]
- sensitivity to cold stimulation compared to Sham group [2]: increased sensitivity
- anxiety level (social interaction time) vs Sham group [3]: significantly more anxious than the animals in the Sham group
- sensitivity to mechanical stimulation compared to Sham group [4]: increased sensitivity to mechanical stimulation
- affected patients in whom the neuropathy becomes persistent [5]: approximately 80%
